Measurements published in patent publication US20240025862A1, “SUBSTITUTED N-PHENYLURACILS AND SALTS THEREOF, AND USE THEREOF AS HERBICIDAL ACTIVE SUBSTANCES” (Bayer Aktiengesellschaft, priority 2020, published 2024).

Columns and labels:
Assay type in all cases: in vivo
[1] = tested on: Echinochloa crus-galli (ECHCG); assay: Post-emergence herbicidal action, greenhouse pot test (also comparative test C)
Summary of the method: (§1)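 Green parts of one-leaf-stage plants are sprayed at 600 l/ha with formulated compound plus 0.5% additive, then kept under optimum greenhouse conditions for about 3 weeks. Damage is scored visually, where 100% means dead plants and 0% means no difference from controls.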

[2] = tested on: Setaria viridis (SETVI); assay: as above; conditions: for Post-emergence action against SETVI: 20 g/ha
Summary of the method: as §1

[3] = tested on: Matricaria inodora (MATIN); assay: as above
Summary of the method: as §1

[4] = tested on: Alopecurus myosuroides (ALOMY); assay: as above; conditions: rated visually after about 3 weeks vs untreated controls, 100% = plants have died
Summary of the method: as §1

[5] = tested on: Polygonum convolvulus (POLCO); assay: Post-emergence herbicidal action, greenhouse pot test
Summary of the method: (§2)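 Activity was scored by eye about 3 weeks after treatment against untreated plants, where 100% means dead plants and 0% means no difference. Plants at the one-leaf stage received a foliar spray of WP or EC formulations in water plus 0.5% additive (600 l/ha, up to 20 g/ha). Plants were grown in sandy loam pots in a greenhouse for 2–3 weeks before spraying.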

[6] = tested on: Veronica persica (VERPE); assay: as above
Summary of the method: as §2

[7] = tested on: Amaranthus retroflexus (AMARE); assay: as above; conditions: rated visually after about 3 weeks vs untreated controls, 100% = plants have died
Summary of the method: as §2

[8] = tested on: Pharbitis purpurea (PHBPU); assay: as above
Summary of the method: as §2

[9] = tested on: Viola tricolor (VIOTR); assay: as above
Summary of the method: as §2

[10] = tested on: Abutilon theophrasti (ABUTH); assay: as above; conditions: rated visually after about 3 weeks vs untreated controls, 100% = plants have died
Summary of the method: as §2

[11] = tested on: Avena fatua (AVEFA); assay: as above; conditions: 20 g/ha, rated visually after about 3 weeks vs untreated controls, 100% = plants have died
Summary of the method: as §2

[12] = tested on: Triticum aestivum (TRZAS); assay: Post-emergence crop plant compatibility, greenhouse pot test; conditions: 1.25 g/ha, vs untreated controls
Summary of the method: (§3)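 Values are visual % damage versus untreated controls (100% = plants died) about 3 weeks after treatment. Plants in sandy loam were sprayed at the one-leaf stage, 2–3 weeks after sowing, with aqueous WP/EC preparations plus 0.5% additive at 600 l/ha; a/b/c mark different dose levels.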

[13] = tested on: Oryza sativa (ORYSA); assay: Post-emergence crop plant compatibility, greenhouse pot test (also comparative test C); conditions: vs untreated controls
Summary of the method: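 Visual damage versus untreated plants (0% = like control, 100% = plants died) was scored about 3 weeks after a post-emergence spray in greenhouse pots. Treatment: one-leaf stage, WP or EC in water at 600 l/ha with 0.5% additive; a/b/c mark different dosages on the same crop.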

[14] = tested on: Zea mays (ZEAMX); assay: Post-emergence crop plant compatibility, greenhouse pot test; conditions: 1.25 g/ha, vs untreated controls
Summary of the method: as §3

| Structure (SMILES) | Post-emergence action against ECHCG in % ([1]; dosage 5 g/ha) | Post-emergence action against ECHCG in % ([1]; dosage 20 g/ha) | Post-emergence action against SETVI [2] | Post-emergence action against SETVI in % ([2]; dosage 1.25 g/ha) | Post-emergence action against SETVI in % ([2]; dosage 5 g/ha) | Post-emergence action against MATIN in % ([3]; dosage 20 g/ha) | Post-emergence action at 20 g/ha against ALOMY in % [4] | Post-emergence action against POLCO in % ([5]; dosage 5 g/ha) | Post-emergence action against POLCO in % ([5]; dosage 20 g/ha) | Post-emergence action against VERPE ([6]; 1.25 g/ha) | Post-emergence action against VERPE ([6]; 5 g/ha) | Post-emergence action against VERPE ([6]; 20 g/ha) | Post-emergence action at 1.25 g/ha against AMARE in % [7] | Post-emergence action at 5 g/ha against AMARE in % [7] | Post-emergence action at 20 g/ha against AMARE in % [7] | Post-emergence action against PHBPU in % ([8]; dosage 1.25 g/ha) | Post-emergence action against PHBPU in % ([8]; dosage 5 g/ha) | Post-emergence action against PHBPU in % ([8]; dosage 20 g/ha) | Post-emergence action against VIOTR ([9]; 1.25 g/ha) | Post-emergence action against VIOTR ([9]; 5 g/ha) | also measured |
| --- | --- | --- | --- | --- | --- | --- | --- | --- | --- | --- | --- | --- | --- | --- | --- | --- | --- | --- | --- | --- | --- |
| CCOCCOC(=O)COc1ccccc1Oc1cc(-n2c(=O)cc(C(F)(F)F)n(C)c2=O)c(F)cc1C#N [I.9-2] | 100% | 100% | 100% | 100% | 100% | 100% | 100% | 100% | 100% | 100% | 100% | 100% | 100% | 100% | 100% | 100% | 100% | 100% | 100% | 100% | Post-emergence action at 1.25 g/ha against ECHCG in % ([1]; 1.25 g/ha, rated visually after about 3 weeks vs untreated controls, 100% = plants have died): 80%; Post-emergence action against MATIN in % ([3]; dosage 5 g/ha): 100%; Post-emergence action at 5 g/ha against ALOMY in % ([4]; 5 g/ha): 80%; Post-emergence action against VIOTR ([9]; 20 g/ha): 100%; Post-emergence action at 1.25 g/ha against ABUTH in % [10]: 100%; Post-emergence action at 5 g/ha against ABUTH in % [10]: 100%; Post-emergence action at 20 g/ha against ABUTH in % [10]: 100%; Post-emergence action at 20 g/ha against AVEFA in % [11]: 90%; Post-emergence action against TRZAS (crop plant compatibility) [12]: 20%; Post-emergence action against ORYSA (crop plant compatibility) ([13]; 1.25 g/ha): 0% |
| Cn1c(C(F)(F)F)cc(=O)n(-c2cc(Oc3cc(F)ccc3OCC(=O)OCC#N)c(Cl)cc2F)c1=O [I.23-176] | 100% | 100% | 100% | 100% | 100% | 80% | 100% | 100% | 100% | 100% | 100% | 100% | 100% | 100% | 100% | 90% | 90% | 100% | 90% | 100% | Post-emergence action against VIOTR ([9]; 20 g/ha): 100%; Post-emergence action at 1.25 g/ha against ABUTH in % [10]: 80%; Post-emergence action at 5 g/ha against ABUTH in % [10]: 100%; Post-emergence action at 20 g/ha against ABUTH in % [10]: 100%; Post-emergence action against ZEAMX (crop plant compatibility) [14]: 20%; Post-emergence action against TRZAS (crop plant compatibility) [12]: 10%; Post-emergence action against ORYSA (crop plant compatibility) ([13]; 1.25 g/ha): 0%; Post-emergence action against ORYSA (crop plant compatibility) ([13]; 5 g/ha): 20% |
